Data set [1] can be described thus: DPPH radical scavenging activity. To be noted: DPPH radical scavenging, 30 min, 25 °C. Here is the method: The DPPH assay is used conventionally to quantify a compound’s ability to trap free radicals.
The compounds were evaluated for their ability to scavenge stable DPPH radicals, using a modification of the method by Turkoglu et al..
In general terms: Loss of DPPH colour is used to gauge radical scavenging.

Data set [2] can be described thus: Ferric reducing antioxidant power (FRAP). The settings on record: ferric reducing antioxidant power. Here is the method:
FRAP is a ferric (Fe^3+) to ferrous (Fe^2+) ions reduction assay that measures a compound’s electron-donating capacity, i.e., the antioxidant’s reducing power.
The mixture was incubated at 50 °C for 20 min, followed by acidification with 100 μL trichloroacetic acid (10%). After centrifugation at 3500 rpm for 10 min, 200 μL of the supernatant was transferred into another test tube containing 200 μL of distilled water and 0.8 mL of FeCl3 (0.1%). Finally, the absorbance was read at 700 nm, and the total reductive antioxidant power was calculated thus: Ferric reducing antioxidant power (%)=Absorbance of compound/Absorbance of 500µM gallic acid×100

Data set [3] can be described thus: Nitric oxide (NO) scavenging activity. The settings on record: nitric oxide radical scavenging, 37 °C, 2 h. Here is the method:
The screening of the present compound series for NO radical scavenging activity (Table 2) identified excellent NO scavengers.
The antioxidant capacity of the compounds to scavenge nitric oxide radicals was determined using a modified version of the protocol by Kurian et al.. Briefly, 250 μL of sodium nitroprusside (10 mM) prepared in sodium phosphate buffer (pH 7.4) was added to 500 μL of the compound solution (62.5–500 μM) or distilled water (control). The resulting solution was incubated at 37 °C for 2 h. Then, 250 μL of Griess reagent was added to the reaction mixture before the absorbance was measured at 546 nm. The nitric oxide scavenging activity of the compounds was calculated with the formula: Nitric oxide scavenging (%)=1−Absorbance of compound/Absorbance of control×100

Another data set concerns the target T1, α-glucosidase (Saccharomyces cerevisiae, UniProt P38158).
T1 construct: purchased Merck
The data set can be described thus: biochemical. The settings on record: pNPG substrate, pH 6.8, 37 °C; read-out: IC50 α-Glucosidase. Here is the method:
The α-glucosidase inhibitory activity was evaluated using a previous method with slight modifications.

In data set [4] the target is T2, porcine pancreatic amylase (Sus scrofa, UniProt P00690).
T2 construct: purchased Merck
T2 sequence (P00690 16-511): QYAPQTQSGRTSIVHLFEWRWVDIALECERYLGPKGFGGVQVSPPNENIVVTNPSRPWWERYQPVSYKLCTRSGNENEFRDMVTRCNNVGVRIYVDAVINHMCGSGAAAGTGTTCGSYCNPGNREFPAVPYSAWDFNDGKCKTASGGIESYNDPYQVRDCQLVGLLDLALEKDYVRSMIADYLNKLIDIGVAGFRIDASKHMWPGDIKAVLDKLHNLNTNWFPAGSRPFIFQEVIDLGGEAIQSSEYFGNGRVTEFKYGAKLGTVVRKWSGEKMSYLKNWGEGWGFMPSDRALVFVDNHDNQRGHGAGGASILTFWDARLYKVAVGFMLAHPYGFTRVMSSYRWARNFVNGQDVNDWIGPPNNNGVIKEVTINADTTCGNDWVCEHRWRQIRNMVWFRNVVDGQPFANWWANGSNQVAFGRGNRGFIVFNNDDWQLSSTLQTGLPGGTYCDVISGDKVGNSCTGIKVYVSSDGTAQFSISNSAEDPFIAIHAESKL
The data set can be described thus: α-Amylase inhibitory activity (starch/DNS). The data set is classed as biochemical. The settings on record: porcine pancreatic amylase, starch, pH 6.9, 25 °C; read-out: IC50 α-Amylase. Here is the method: α-Amylase inhibitory activity was determined according to Ibitoye et al. with slight modifications. […] The reaction in the mixture was terminated with a 1 mL dinitrosalicylate reagent before boiling for 10 min. The cooled mixture was diluted with 5 mL distilled water, and the absorbance was read at 540 nm. The inhibitory activity was calculated using the formula below: % Inhibition=1−Absorbance of compound/Absorbance of control×100

What is called IC50 is the concentration that gives 50% inhibition. As usually defined, the melting point is the temperature, or range, at which the solid turns liquid.

T1 sequence (P38158 whole entry): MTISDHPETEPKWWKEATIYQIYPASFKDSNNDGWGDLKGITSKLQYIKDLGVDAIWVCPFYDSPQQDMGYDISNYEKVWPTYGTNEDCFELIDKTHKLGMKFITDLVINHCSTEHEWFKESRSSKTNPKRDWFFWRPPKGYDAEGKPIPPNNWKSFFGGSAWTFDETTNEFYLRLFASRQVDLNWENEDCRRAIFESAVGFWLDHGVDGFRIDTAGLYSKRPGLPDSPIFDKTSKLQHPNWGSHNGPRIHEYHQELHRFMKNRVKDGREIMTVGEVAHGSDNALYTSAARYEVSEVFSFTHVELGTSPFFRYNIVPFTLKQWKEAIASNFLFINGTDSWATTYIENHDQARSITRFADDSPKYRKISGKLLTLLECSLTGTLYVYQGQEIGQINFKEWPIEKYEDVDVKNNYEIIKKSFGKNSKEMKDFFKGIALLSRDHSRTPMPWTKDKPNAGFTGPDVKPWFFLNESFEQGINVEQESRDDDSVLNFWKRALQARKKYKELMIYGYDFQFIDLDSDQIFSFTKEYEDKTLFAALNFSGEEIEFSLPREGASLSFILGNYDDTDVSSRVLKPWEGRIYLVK

Compound `CCCCCn1cc(CSc2nnc(COc3cccc4cccnc34)o2)nn1` [12a] returned a melting point of 90 to 94 °C. In addition, the IC50 in data set [1] was found to be 90 µM. In addition, the IC50 in data set [2] was greater than 500 µM. This compound also had an IC50 in data set [3] greater than 500 µM. On α-glucosidase, the IC50 worked out at 35.2 µM. In addition, the IC50 in data set [4] was greater than 500 µM.
On to `c1ccc(Cn2cc(CSc3nnc(COc4cccc5cccnc45)o3)nn2)cc1` [12c, 2-{[(1-Benzyl-1H-1,2,3-triazol-4-yl)methyl]thio}-5-[(quinolin-8-yloxy)methyl]-1,3,4-oxadiazole], for which the melting point fell in the range of 68 to 71 °C. Moreover, in data set [1], the 50% inhibitory concentration (IC50) was found to be 80.2 µM. For the same compound, the IC50 in data set [2] is greater than 500 µM. In data set [3], this compound registered a concentration for half-maximal inhibition (IC50) greater than 500 µM. The IC50 on α-glucosidase worked out at 46.9 µM. Besides, the IC50 in data set [4] is greater than 500 µM.
`Clc1ccc(Cn2cc(CSc3nnc(COc4cccc5cccnc45)o3)nn2)cc1` [12d, 2-{[(1-(4-Chlorobenzyl)-1H-1,2,3-triazol-4-yl)methyl]thio}-5-[(quinolin-8-yloxy)methyl]-1,3,4-oxadiazole] returned a melting point of 92 to 96 °C. This compound also yielded a 50% inhibitory concentration (IC50) in data set [1] of 80.4 µM. This compound yielded an IC50 in data set [2] greater than 500 µM. For the same compound, the half-maximal inhibitory concentration (IC50) in data set [3] is greater than 500 µM. On α-glucosidase, the concentration for half-maximal inhibition (IC50) came out at 38.1 µM. Moreover, the IC50 in data set [4] is greater than 500 µM.
The compound `Fc1ccc(Cn2cc(CSc3nnc(COc4cccc5cccnc45)o3)nn2)cc1` [12e, 2-{[(1-(4-Fluorobenzyl)-1H-1,2,3-triazol-4-yl)methyl]thio}-5-[(quinolin-8-yloxy)methyl]-1,3,4-oxadiazole] returned a melting point of 96 to 101 °C. Besides, inhibition in data set [1] was half-maximal at 92.8 µM (IC50). This compound came in with a half-inhibitory concentration (IC50) in data set [2] greater than 500 µM. The same compound showed a concentration for half-maximal inhibition (IC50) in data set [3] greater than 500 µM. In addition, the concentration for half-maximal inhibition (IC50) on α-glucosidase was 39.3 µM. Also, the IC50 in data set [4] is greater than 500 µM.
`Brc1ccc(Cn2cc(CSc3nnc(COc4cccc5cccnc45)o3)nn2)cc1` [12f, 2-{[(1-(4-Bromobenzyl)-1H-1,2,3-triazol-4-yl)methyl]thio}-5-[(quinolin-8-yloxy)methyl]-1,3,4-oxadiazole] returned a melting point of 78 to 82 °C. The compound also registered an IC50 in data set [1] of 91.8 µM. The IC50 in data set [2] is greater than 500 µM. The midpoint of inhibition in data set [3], the IC50, lay at 482 µM. The half-maximal inhibitory concentration (IC50) on α-glucosidase came out at 56.4 µM. The half-inhibitory concentration (IC50) in data set [4] is greater than 500 µM.
Turning to `O=[N+]([O-])c1ccc(Cn2cc(CSc3nnc(COc4cccc5cccnc45)o3)nn2)cc1` [12g, 2-{[(1-(4-Nitrobenzyl)-1H-1,2,3-triazol-4-yl)methyl]thio}-5-[(quinolin-8-yloxy)methyl]-1,3,4-oxadiazole], the melting point was in the range of 100 to 106 °C. In data set [1], the IC50 was found to be 81.9 µM. The same compound showed an IC50 in data set [2] greater than 500 µM. In addition, the half-inhibitory concentration (IC50) in data set [3] was determined as 3.01 µM. At α-glucosidase, the IC50 stood at 46.5 µM. The concentration for half-maximal inhibition (IC50) in data set [4] is greater than 500 µM.
`Clc1cccc(Cn2cc(CSc3nnc(COc4cccc5cccnc45)o3)nn2)c1` [12h, 2-{[(1-(3-Chlorobenzyl)-1H-1,2,3-triazol-4-yl)methyl]thio}-5-[(quinolin-8-yloxy)methyl]-1,3,4-oxadiazole] registered a melting point of 78 to 84 °C. In addition, the IC50 in data set [1] was found to be 90.7 µM. Also, the IC50 in data set [2] was greater than 500 µM. Also, the half-maximal inhibitory concentration (IC50) in data set [3] was greater than 500 µM. Further, the IC50 on α-glucosidase is 63.6 µM. Also, the IC50 in data set [4] is greater than 500 µM.
In the case of `Clc1ccc(Cn2cc(CSc3nnc(COc4cccc5cccnc45)o3)nn2)c(Cl)c1` [12i, 2-{[(1-(2,4-Dichlorobenzyl)-1H-1,2,3-triazol-4-yl)methyl]thio}-5-[(quinolin-8-yloxy)methyl]-1,3,4-oxadiazole], the melting point was in the range of 124 to 130 °C. For the same compound, the IC50 in data set [1] was 95.4 µM. The same compound displayed a half-inhibitory concentration (IC50) in data set [2] greater than 500 µM. In data set [3], this compound came in with an IC50 greater than 500 µM. Moreover, the half-maximal inhibitory concentration (IC50) on α-glucosidase was 42.8 µM. Further, the IC50 in data set [4] was greater than 500 µM.
`Clc1ccc(-n2cc(CSc3nnc(COc4cccc5cccnc45)o3)nn2)cc1` [12l, 2-{[(1-(4-Chlorophenyl)-1H-1,2,3-triazol-4-yl)methyl]thio}-5-[(quinolin-8-yloxy)methyl]-1,3,4-oxadiazole] showed a melting point of 132 to 136 °C. Further, the half-inhibitory concentration (IC50) in data set [1] came to 81.7 µM. The compound also had an IC50 in data set [2] greater than 500 µM. This compound also displayed an IC50 in data set [3] greater than 500 µM. Also, the IC50 at α-glucosidase worked out at 38 µM. The half-maximal inhibitory concentration (IC50) in data set [4] was greater than 500 µM.
`Brc1ccc(-n2cc(CSc3nnc(COc4cccc5cccnc45)o3)nn2)cc1` [12n, 2-{[(1-(4-Bromophenyl)-1H-1,2,3-triazol-4-yl)methyl]thio}-5-[(quinolin-8-yloxy)methyl]-1,3,4-oxadiazole]: the melting point fell in the range of 126 to 132 °C. In data set [1], this compound displayed an IC50 of 92.2 µM. This compound also yielded an IC50 in data set [2] greater than 500 µM. Further, the IC50 in data set [3] is greater than 500 µM. Further, the concentration for half-maximal inhibition (IC50) on α-glucosidase stood at 35.2 µM. Besides, the IC50 in data set [4] was greater than 500 µM.
Compound `O=[N+]([O-])c1ccc(-n2cc(CSc3nnc(COc4cccc5cccnc45)o3)nn2)cc1` [12o, 2-{[(1-(4-Nitrophenyl)-1H-1,2,3-triazol-4-yl)methyl]thio}-5-[(quinolin-8-yloxy)methyl]-1,3,4-oxadiazole] returned a melting point of 150 to 156 °C. In data set [1], this compound came in with a 50% inhibitory concentration (IC50) of 88.9 µM. In addition, in data set [2], the concentration for half-maximal inhibition (IC50) is greater than 500 µM. Moreover, the concentration for half-maximal inhibition (IC50) in data set [3] was greater than 500 µM. In addition, the IC50 on α-glucosidase is 38.3 µM. In data set [4], the 50% inhibitory concentration (IC50) is greater than 500 µM.
Turning to `Cc1ccc(-n2cc(CSc3nnc(COc4cccc5cccnc45)o3)nn2)cc1` [12p, 2-[(Quinolin-8-yloxy)methyl]-5-{[(1-(p-tolyl)-1h-1,2,3-triazol-4-yl)methyl]thio}-1,3,4-oxadiazole], the melting point is 78 to 80 °C. The compound also returned an IC50 in data set [1] of 96 µM. The compound further registered an IC50 in data set [2] greater than 500 µM. The same compound showed an IC50 in data set [3] greater than 500 µM. Moreover, the IC50 on α-glucosidase amounted to 44.1 µM. The IC50 in data set [4] amounted to 495 µM.
On to `COc1ccc(-n2cc(CSc3nnc(COc4cccc5cccnc45)o3)nn2)cc1` [12q, 2-{[(1-(4-Methoxyphenyl)-1H-1,2,3-triazol-4-yl)methyl]thio}-5-[(quinolin-8-yloxy)methyl]-1,3,4-oxadiazole], for which the melting point was 122 to 128 °C. Moreover, in data set [1], half-maximal inhibition (IC50) required 98.5 µM. The compound also gave an IC50 in data set [2] greater than 500 µM. Also, in data set [3], the IC50 was greater than 500 µM. The half-inhibitory concentration (IC50) at α-glucosidase worked out at 62.1 µM. Moreover, the IC50 in data set [4] was greater than 500 µM.
In turn, `Clc1ccc(-n2cc(CSc3nnc(COc4cccc5cccnc45)o3)nn2)c(Cl)c1` [12r, 2-{[(1-(2,4-Dichlorophenyl)-1H-1,2,3-triazol-4-yl)methyl]thio}-5-[(quinolin-8-yloxy)methyl]-1,3,4-oxadiazole] yielded a melting point of 112 to 116 °C. In data set [1], half-maximal inhibition (IC50) required 101 µM. Also, the IC50 in data set [2] is greater than 500 µM. Further, in data set [3], the IC50 is greater than 500 µM. In addition, the IC50 on α-glucosidase turned out to be 48.5 µM. In data set [4], the IC50 was greater than 500 µM.
`Clc1cccc(Cl)c1-n1cc(CSc2nnc(COc3cccc4cccnc34)o2)nn1` [12s, 2-{[(1-(2,6-Dichlorophenyl)-1H-1,2,3-triazol-4-yl)methyl]thio}-5-[(quinolin-8-yloxy)methyl]-1,3,4-oxadiazole] had a melting point of 113 to 118 °C. In data set [1], this compound registered an IC50 of 84.5 µM. The same compound gave an IC50 in data set [2] greater than 500 µM. In data set [3], the IC50 was greater than 500 µM. Further, at α-glucosidase, the concentration for half-maximal inhibition (IC50) is 38.8 µM. The IC50 in data set [4] was greater than 500 µM.
With `Cc1cccc(C)c1-n1cc(CSc2nnc(COc3cccc4cccnc34)o2)nn1` [12t, 2-{[(1-(2,6-Dimethylphenyl)-1H-1,2,3-triazol-4-yl)methyl]thio}-5-[(quinolin-8-yloxy)methyl]-1,3,4-oxadiazole], the melting point lay within 110 to 116 °C. Further, the IC50 in data set [1] stood at 90 µM. In data set [2], this compound registered an IC50 greater than 500 µM. Also, in data set [3], the IC50 is greater than 500 µM. Besides, at α-glucosidase, the IC50 was 44.1 µM. Besides, the half-maximal inhibitory concentration (IC50) in data set [4] is greater than 500 µM.

The values above are taken from PMC9414972, “α-Glucosidase and α-Amylase Inhibitory Potentials of Quinoline–1,3,4-oxadiazole Conjugates Bearing 1,2,3-Triazole with Antioxidant Activity, Kinetic Studies, and Computational Validation” (Pharmaceuticals, 2022).
